This assay deals with TPA induced ear inflammation. The experiment in a line: 12-O-Tetradecanoylphorbol-13-Acetate (TPA) induced ear inflammation in mice. It counts as in vivo, Male C57BL/6 mice. The following applies: for dose dependence of efficacy: topical test formulation. On the procedure: Efficacy of the test formulations was determined in studies using 12-O-Tetradecanoylphorbol-13-Acetate (TPA) induced ear inflammation in mice. Excessive proliferation of keratinocytes is a characteristic of psoriasis, and this cell type is a well reported target of therapy for this disease. In the present study, chronic skin inflammation was induced by repeated topical application of TPA, which is recognized by prolonged skin reaction & epidermal hyperplasia. The animal model used was Male C57BL/6 mice 6 to 8 weeks of age. Protocol: • a) Animals were randomized based on body weight and divided into six different groups consisting of 8 animals. • b) 20 μL of TPA solution containing 2 μg of TPA in vehicle (2% DMSO and 98% methanol) was applied topically on both ventral and dorsal side (10 μL each side) of the right ear of all the animals except group Group G1 on day 0, 2, 4, 7 and 9. • c) Group G1 and Group G2 were topically treated with placebo gel formulation on right ear. • d) Groups G3, G4 and G5 were topically treated with test compositions comprising apremilast (2% w/w, 4% w/w and 10% w/w concentration). • e) Group G6 was topically treated with 0.1% Betamethasone valerate cream. • f) All the formulations were uniformly applied, 25 mg each (50 mg per animal), in anterior and posterior region of the right ear daily from day 0 to day 10.

Turning to `CCOc1cc([C@@H](CS(C)(=O)=O)N2C(=O)c3cccc(NC(C)=O)c3C2=O)ccc1OC` [apremilast, N-[2-[(1S)-1-(3-ethoxy-4-methoxyphenyl)-2-(methylsulfonyl)ethyl]-2,3-dihydro-1,3-dioxo-1H-isoin-dol-4-yl]acetamide], where the note is “daily topical application of test formulation on right ear, day 0 to day 10, tested concentrations 2%, 4% and 10% apremilast”, the “efficacy against ear inflammation” value is reported as “effective against ear inflammation”. The “reduction on ear edema” value (topical test formulation containing 2% apremilast) is reported as “poor reduction on ear edema which tapered off by day-9”. Further, the “dose dependence of efficacy” value by setting is: (10% concentration of apremilast) “saturation of efficacy”; (between 2% and 4% apremilast) “Dose-dependent increase in efficacy”.

Source of the values: patent US20190374508A1, “THERAPEUTIC TOPICAL COMPOSITIONS OF APREMILAST” (SARUDBHAVA FORMULATIONS PRIVATE LIMITED, priority 2017, published 2019).
